Measurements: ChEMBL document CHEMBL4229545, “Oximes short-acting CB1 receptor agonists” (Bioorg Med Chem, 2018)
The source made the active and inactive calls. No cut-off for these calls is given here.

Key:
Cannabinoid receptor 2 [1] = molecular target: T1, Cannabinoid receptor 2 (Homo sapiens, UniProt P34972); test: Agonist activity at recombinant human Cb2 receptor expressed in HEK293 cells assessed as inhibition of forskolin-stimulated cAMP levels relative to CP-55940; assay type: functional, cell-based
T1 sequence (P34972 whole entry): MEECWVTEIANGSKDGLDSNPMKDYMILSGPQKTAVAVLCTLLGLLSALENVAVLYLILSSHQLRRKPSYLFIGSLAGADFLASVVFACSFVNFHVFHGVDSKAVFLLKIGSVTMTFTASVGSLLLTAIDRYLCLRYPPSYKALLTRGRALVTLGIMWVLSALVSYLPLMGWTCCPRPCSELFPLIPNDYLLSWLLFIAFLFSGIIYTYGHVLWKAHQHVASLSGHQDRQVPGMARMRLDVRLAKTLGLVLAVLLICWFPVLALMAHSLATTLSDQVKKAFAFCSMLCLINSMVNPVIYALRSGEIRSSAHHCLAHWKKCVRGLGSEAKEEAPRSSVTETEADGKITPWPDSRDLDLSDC

Cannabinoid receptor 2 [2] = molecular target: Cannabinoid receptor 2 (Mus musculus, UniProt P47936); test: Displacement of [3H]CP-55,940 from recombinant mouse Cb2 receptor expressed in HEK293 cells; assay type: cell-based
Sequence of Cannabinoid receptor 2 (Mus musculus, UniProt P47936) (P47936 whole entry): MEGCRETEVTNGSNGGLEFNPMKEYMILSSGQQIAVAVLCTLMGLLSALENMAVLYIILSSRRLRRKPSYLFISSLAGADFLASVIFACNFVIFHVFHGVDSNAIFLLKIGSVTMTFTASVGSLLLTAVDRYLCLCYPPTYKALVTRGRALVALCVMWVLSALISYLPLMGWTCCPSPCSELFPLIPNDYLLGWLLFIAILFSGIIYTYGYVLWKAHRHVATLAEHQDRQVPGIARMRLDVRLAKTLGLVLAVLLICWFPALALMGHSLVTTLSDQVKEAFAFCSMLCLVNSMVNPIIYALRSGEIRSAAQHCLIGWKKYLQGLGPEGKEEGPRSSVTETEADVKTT

Cannabinoid receptor 1 [3] = molecular target: T2, Cannabinoid receptor 1 (Rattus norvegicus, UniProt P20272); test: Agonist activity at recombinant rat Cb1 receptor expressed in HEK293 cells assessed as inhibition of forskolin-stimulated cAMP levels; assay type: functional, cell-based
T2 sequence (P20272 whole entry): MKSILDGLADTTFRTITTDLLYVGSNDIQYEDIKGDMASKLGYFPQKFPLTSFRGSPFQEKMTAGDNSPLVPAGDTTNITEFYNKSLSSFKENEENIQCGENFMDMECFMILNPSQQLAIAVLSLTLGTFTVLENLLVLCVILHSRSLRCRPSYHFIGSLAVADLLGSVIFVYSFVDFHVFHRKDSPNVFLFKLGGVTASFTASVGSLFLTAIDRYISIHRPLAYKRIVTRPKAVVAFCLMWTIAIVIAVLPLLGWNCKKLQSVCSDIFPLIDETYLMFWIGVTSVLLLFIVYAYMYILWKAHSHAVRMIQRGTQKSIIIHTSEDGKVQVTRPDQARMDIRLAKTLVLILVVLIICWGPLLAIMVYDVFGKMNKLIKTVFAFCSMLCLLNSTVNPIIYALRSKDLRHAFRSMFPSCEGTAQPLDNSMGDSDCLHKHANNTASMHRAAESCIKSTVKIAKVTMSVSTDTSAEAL

Cannabinoid receptor 2 [4] = molecular target: T1, Cannabinoid receptor 2; test: Agonist activity at recombinant human Cb2 receptor expressed in HEK293 cells assessed as inhibition of forskolin-stimulated cAMP levels; assay type: functional, cell-based; settings: read-out: EC50
Cannabinoid receptor 1 [5] = molecular target: T2, Cannabinoid receptor 1; test: Displacement of [3H]CP-55,940 from rat brain Cb1 receptor
[6] = molecular target: Cannabinoid receptor 1 (Rattus norvegicus) (UniProt P20272); test: Agonist activity at recombinant rat Cb1 receptor expressed in HEK293 cells assessed as inhibition of forskolin-stimulated cAMP levels relative to control; assay type: functional, cell-based
Sequence of Cannabinoid receptor 1 (Rattus norvegicus) (P20272 whole entry): as above

Cannabinoid receptor 2 [7] = molecular target: T1, Cannabinoid receptor 2; test: Displacement of [3H]CP-55,940 from recombinant human Cb2 receptor expressed in HEK293 cells; assay type: cell-based
[8] = Half life in human liver microsomes; assay type: ADME, microsome
Rattus norvegicus [9] = test: Induction of hypothermia in Sprague-Dawley rat assessed as decrease in body temperature at 1 mg/kg, ip measured after 3 to 6 hrs; assay type: functional, organism-based
[10] = Half life in human plasma; assay type: ADME, cell-free
[11] = AUC in CD1 mouse kidney at 2 mg/kg, iv; assay type: ADME, organism-based
[12] = AUC in CD1 mouse fat at 10 mg/kg, po; assay type: ADME, organism-based, Adipose tissue
[13] = AUC in CD1 mouse spleen at 10 mg/kg, po; assay type: ADME, organism-based
[14] = Half life in rat plasma; assay type: ADME, cell-free
Mus musculus [15] = test: Volume of distribution in CD1 mouse at 10 mg/kg, po; assay type: ADME, organism-based; settings: in vivo
[16] = AUC in CD1 mouse brain at 10 mg/kg, po; assay type: ADME, organism-based
[17] = Ratio of AUC in plasma to kidney of CD1 mouse at 2 mg/kg, iv; assay type: ADME, organism-based; settings: in vivo
[18] = Half life in simulated gastric fluid; assay type: ADME
[19] = AUC in CD1 mouse at 2 mg/kg, iv; assay type: ADME, organism-based; settings: in vivo
[20] = AUC in CD1 mouse liver at 2 mg/kg, iv; assay type: ADME, organism-based
[21] = AUC in CD1 mouse kidney at 10 mg/kg, po; assay type: ADME, organism-based
[22] = Volume of distribution in CD1 mouse at 2 mg/kg, iv; assay type: ADME, organism-based; settings: in vivo
Rattus norvegicus [23] = test: Induction of hypothermia in Sprague-Dawley rat assessed as decrease in body temperature at 1 mg/kg, ip measured after 24 hrs; assay type: functional, organism-based
[24] = molecular target: Cannabinoid receptor 1 (Rattus norvegicus) (UniProt P20272); test: Displacement of [3H]CP-55,940 from rat brain Cb1 receptor expressed in HEK293 cells at 10 times Ki measured after 1 hr relative to control; assay type: cell-based
[25] = Ratio of AUC in plasma to brain of CD1 mouse at 10 mg/kg, po; assay type: ADME, organism-based; settings: in vivo
Mus musculus [26] = test: Analgesic activity in CD1 mouse model of thermal-induced nociception assessed as tail withdrawal latency at 1 mg/kg, ip measured after 180 to 360 mins by tail flick test; assay type: functional, organism-based
[27] = Ratio of AUC in plasma to brain of CD1 mouse at 2 mg/kg, iv; assay type: ADME, organism-based; settings: in vivo
[28] = Ratio of AUC in plasma to spleen of CD1 mouse at 10 mg/kg, po; assay type: ADME, organism-based; settings: in vivo
[29] = Ratio of AUC in plasma to liver of CD1 mouse at 2 mg/kg, iv; assay type: ADME, organism-based; settings: in vivo
[30] = AUC in CD1 mouse fat at 2 mg/kg, iv; assay type: ADME, organism-based, Adipose tissue
[31] = AUC in CD1 mouse urine at 10 mg/kg, po; assay type: ADME, organism-based
[32] = molecular target: Cannabinoid receptor 1 (Rattus norvegicus) (UniProt P20272); test: Displacement of [3H]CP-55,940 from rat brain Cb1 receptor expressed in HEK293 cells at 10 times Ki incubated for 1 hr followed by 5 times membrane washout; assay type: cell-based
[33] = Half life in mouse plasma; assay type: ADME, cell-free
[34] = Half life in rat liver microsomes; assay type: ADME, microsome
Rattus norvegicus [35] = test: Induction of hypothermia in Sprague-Dawley rat assessed as decrease in body temperature at 1 to 10 mg/kg, ip measured after 180 to 360 mins; assay type: functional, organism-based
Rattus norvegicus [36] = organism: Rattus norvegicus; settings: Sprague-Dawley
Description: Induction of hypothermia in ip dosed Sprague-Dawley rat assessed as decrease in body temperature measured up to 180 mins

[37] = AUC in CD1 mouse spleen at 2 mg/kg, iv; assay type: ADME, organism-based
[38] = Ratio of AUC in plasma to kidney of CD1 mouse at 10 mg/kg, po; assay type: ADME, organism-based; settings: in vivo
[39] = Ratio of AUC in plasma to fat of CD1 mouse at 2 mg/kg, iv; assay type: ADME, organism-based, Adipose tissue/Plasma; settings: in vivo
[40] = AUC in CD1 mouse at 10 mg/kg, po; assay type: ADME, organism-based; settings: in vivo
[41] = Ratio of AUC in plasma to urine of CD1 mouse at 10 mg/kg, po; assay type: ADME, organism-based; settings: in vivo
[42] = Half life in CD1 mouse at 10 mg/kg, po; assay type: ADME, organism-based; settings: in vivo
[43] = Ratio of AUC in plasma to fat of CD1 mouse at 10 mg/kg, po; assay type: ADME, organism-based, Adipose tissue/Plasma; settings: in vivo
[44] = AUC in CD1 mouse liver at 10 mg/kg, po; assay type: ADME, organism-based
[45] = Ratio of AUC in plasma to spleen of CD1 mouse at 2 mg/kg, iv; assay type: ADME, organism-based; settings: in vivo
[46] = AUC in CD1 mouse plasma at 10 mg/kg, po; assay type: ADME, organism-based
[47] = Ratio of AUC in plasma to liver of CD1 mouse at 10 mg/kg, po; assay type: ADME, organism-based; settings: in vivo
[48] = Half life in CD1 mouse at 2 mg/kg, iv; assay type: ADME, organism-based; settings: in vivo
[49] = AUC in CD1 mouse plasma at 2 mg/kg, iv; assay type: ADME, organism-based
[50] = AUC in CD1 mouse brain at 2 mg/kg, iv; assay type: ADME, organism-based
[51] = Half life in mouse liver microsomes; assay type: ADME, microsome
Mus musculus [52] = test: Analgesic activity in ip dosed CD1 mouse model of thermal-induced nociception assessed as tail withdrawal latency measured after 20 mins by tail flick test; assay type: functional
[53] = Tmax in CD1 mouse at 10 mg/kg, po; assay type: ADME, organism-based; settings: in vivo

CC1=CC[C@H]2[C@H](C1)c1c(O)cc(/C(C)=N/OCCCc3ccccc3)cc1OC2(C)C
Emax (Cannabinoid receptor 2 [1]): 35% | Ki (Cannabinoid receptor 2 [2]): 3.8 nM | EC50 (Cannabinoid receptor 1 [3]; read-out: EC50): 2.6 nM | EC50 (Cannabinoid receptor 2 [4]): 1.65 nM | Ki (Cannabinoid receptor 1 [5]): 3 nM | Emax [6]: 27% | Ki (Cannabinoid receptor 2 [7]): 2.7 nM

CCCCCCC(C)(C)c1cc(O)c2c(c1)OC(C)(C)[C@H]1CC=C(C)C[C@H]21
Ki (Cannabinoid receptor 2 [2]): 3.2 nM | Ki (Cannabinoid receptor 1 [5]): 0.77 nM | Ki (Cannabinoid receptor 2 [7]): 9 nM

CCCCCCC(C)(C)c1ccc([C@@H]2C[C@H](O)CC[C@H]2CCCO)c(O)c1
Emax (Cannabinoid receptor 2 [1]): 70 to 85% | Emax [6]: 70 to 85%

CCCC(C)O/N=C(/C)c1cc(O)c2c(c1)OC(C)(C)[C@H]1CC=C(C)C[C@H]21 (mixture of isomers)
Emax (Cannabinoid receptor 2 [1]): 260% | Ki (Cannabinoid receptor 2 [2]): 1.9 nM | EC50 (Cannabinoid receptor 1 [3]; hek293): Not Active | EC50 (Cannabinoid receptor 2 [4]): 11.5 nM | Ki (Cannabinoid receptor 1 [5]): 0.5 nM | Ki (Cannabinoid receptor 2 [7]): 6.1 nM

CC1=CC[C@H]2[C@H](C1)c1c(O)cc(/C(C)=N/OCCCC#N)cc1OC2(C)C
half-life [8]: 9 min | Activity (Rattus norvegicus [9]): Active | half-life [10]: > 60 min | AUC [11]: 890 ng·h/mL | AUC [12]: 710 ng·h/mL | AUC [13]: 107 ng·h/mL | half-life [14]: > 60 min | Vd (Mus musculus [15]): 68042 mL/kg | AUC [16]: 154 ng·h/mL | Ratio AUC [17]: 0.99 | half-life [18]: > 60 min | AUC [19]: 1060 ng·h/mL | AUC [20]: 580 ng·h/mL | AUC [21]: 257 ng·h/mL | Emax (Cannabinoid receptor 2 [1]): 47% | Vd [22]: 2.16 L/kg | Ki (Cannabinoid receptor 2 [2]): 2.6 nM | Activity (Rattus norvegicus [23]): inactive | inhibition [24]: 44% | Ratio AUC [25]: 1.24 | Activity (Mus musculus [26]): Active | EC50 (Cannabinoid receptor 1 [3]; read-out: EC50): 4.4 nM | EC50 (Cannabinoid receptor 2 [4]): 12 nM | Ratio AUC [27]: 0.49 | Ratio AUC [28]: 0.86 | Ratio AUC [29]: 0.64 | AUC [30]: 5390 ng·h/mL | AUC [31]: 11.3 ng·h/mL | inhibition [32]: 23% | half-life [33]: > 60 min | half-life [34]: 12 min | Activity (Rattus norvegicus [35]): inactive | deltaT (Rattus norvegicus [36]): 4.5 to 7.7 °C | Ki (Cannabinoid receptor 1 [5]): 0.9 nM | AUC [37]: 957 ng·h/mL | Ratio AUC [38]: 2.06 | Ratio AUC [39]: 5.98 | AUC [40]: 1240 ng·h/mL | Ratio AUC [41]: 0.09 | half-life [42]: 35.2 min | Ratio AUC [43]: 5.72 | AUC [44]: 308 ng·h/mL | Ratio AUC [45]: 1.06 | AUC [46]: 124 ng·h/mL | Ratio AUC [47]: 2.48 | half-life [48]: 47.3 min | AUC [49]: 900 ng·h/mL | AUC [50]: 443 ng·h/mL | half-life [51]: 13 min | Emax [6]: 51% | Ki (Cannabinoid receptor 2 [7]): 1.3 nM | Activity (Mus musculus [52]): Dose-dependent effect | ED50 (Mus musculus [52]): 1.42 mg/kg | Tmax [53]: 1 h

CCCCO/N=C(\C)c1cc(O)c2c(c1)OC(C)(C)[C@H]1CC=C(C)C[C@H]21
Emax (Cannabinoid receptor 2 [1]): 116% | Ki (Cannabinoid receptor 2 [2]): 1.6 nM | EC50 (Cannabinoid receptor 1 [3]; read-out: EC50): 0.58 nM | EC50 (Cannabinoid receptor 2 [4]): 9.14 nM | Ki (Cannabinoid receptor 1 [5]): 3.4 nM | Emax [6]: 51% | Ki (Cannabinoid receptor 2 [7]): 16.9 nM

CC1=CC[C@H]2[C@H](C1)c1c(O)cc(/C(C)=N/OCCCn3ccnc3)cc1OC2(C)C
Ki (Cannabinoid receptor 2 [2]): 1.5 nM | Ki (Cannabinoid receptor 1 [5]): 1.2 nM | Ki (Cannabinoid receptor 2 [7]): 3.7 nM

CC1=CC[C@H]2[C@H](C1)c1c(O)cc(/C(C)=N\OCCCC#N)cc1OC2(C)C
Emax (Cannabinoid receptor 2 [1]): 35% | Ki (Cannabinoid receptor 2 [2]): 0.1 nM | EC50 (Cannabinoid receptor 1 [3]; hek293): Not Active | EC50 (Cannabinoid receptor 2 [4]): 2 nM | Ki (Cannabinoid receptor 1 [5]): 0.3 nM | Ki (Cannabinoid receptor 2 [7]): 0.4 nM

CCCC(C)O/N=C(\C)c1cc(O)c2c(c1)OC(C)(C)[C@H]1CC=C(C)C[C@H]21 (mixture of isomers)
Emax (Cannabinoid receptor 2 [1]): 411% | Ki (Cannabinoid receptor 2 [2]): 43.6 nM | EC50 (Cannabinoid receptor 1 [3]; read-out: EC50): 22.4 nM | EC50 (Cannabinoid receptor 2 [4]): 41.3 nM | Ki (Cannabinoid receptor 1 [5]): 2 nM | Emax [6]: 48% | Ki (Cannabinoid receptor 2 [7]): 24 nM
